# Patent US9322066B2, “Predictors for cancer treatment” (priority 2011, dated 2016)
# Tested on: relapsed or refractory, rituximab-naive or -sensitive follicular B-cell NHL
# Test: Time to next anti-lymphoma therapy, Vc-R vs rituximab study, by biomarker
# Format: in vivo, human
# Set-up: Median, Time to Next Anti-Lymphoma Therapy / Time to Next Anti-Lymphoma Therapy, Median: unit not given here
# Excerpt: Non-Hodgkin lymphoma (NHL) encompasses several unique malignant lymphoid disease entities that vary in clinical behavior, morphologic appearance, immunologic, and molecular phenotype. […] A randomized, open-label, active-controlled, multicenter, multinational, prospective study to compare the efficacy and safety of the combination of bortezomib and rituximab (Vc-R) to single-agent rituximab in subjects who have relapsed or refractory, rituximab-naive or -sensitive follicular B-cell NHL was performed.
# Subjects were centrally randomized to Treatment Groups A (Vc-R) or B (rituximab) in a 1:1 ratio taking into account the following stratification factors: • Follicular Lymphoma International Prognostic Index (FLIPI) score (low [0 or 1 factor], intermediate [2 factors], high [≧3 factors]); • Prior rituximab therapy (yes, no); • Time since last dose of anti-lymphoma therapy (≦1 year, >1 year); • Region (United States/Canada, European Union, Rest of World).
# The following clinical endpoints were included in the analysis within each treatment group and an overall comparison was made with the biomarker-related endpoints: Progression-free survival, defined as the interval between the date of randomization and the date of progressive disease (PD) or death, whichever is first reported in the ITT population; overall survival; overall response rate (complete response [CR]+CR unconfirmed [CRu]+partial response [PR]); overall CR rate (CR+CRu); duration of response; time to next anti-lymphoma therapy; and treatment free interval.
# [1] = CD68 POSITIVE PERIFOLLICULAR: 0-25, White, IRC Review
# [2] = CD68 POSITIVE PERIFOLLICULAR: 0-25, ≦65 years old, IRC Review
# [3] = CD68 POSITIVE PERIFOLLICULAR: 26-50, Other, IRC Review
# [4] = CD68 POSITIVE PERIFOLLICULAR: >75, 1 Prior Line of Therapy, IRC Review
# [5] = CD68 POSITIVE PERIFOLLICULAR: >75, European Union, IRC Review
# [6] = CD68 POSITIVE PERIFOLLICULAR: >75, ≦65 years old, IRC Review
# [7] = NOTCH/G_A1702P: MND, subgroup White, IRC review
# [8] = NOTCH/I1681N: MND, subgroup White, IRC review
# [9] = NOTCH/L1679P: MND, subgroup White, IRC review
# [10] = NOTCH/L1679Q: MND, subgroup White, IRC review
# [11] = NOTCH/L2458V: MND, subgroup White, IRC review
# [12] = NOTCH/P2513L: MND, subgroup White, IRC review
# [13] = NOTCH/P2515FS4: MND, subgroup White, IRC review
# [14] = NOTCH/Q2441X: MND, subgroup White, IRC review
# [15] = NOTCH/Q2460X: MND, subgroup White, IRC review
# [16] = NOTCH/X26DEL: MND, subgroup White, IRC review
# [17] = NOTCH/X26INS: MND, subgroup White, IRC review
# [18] = NOTCH/X28DEL: MND, subgroup White, IRC review
# [19] = NOTCH/X28INS: MND, subgroup White, IRC review
# [20] = P27 % NUCLEI POSITIVE: 0-20, 1 Prior Line of Therapy, IRC Review
# [21] = P27 % NUCLEI POSITIVE: 0-20, Ann Arbor Stage III, IRC Review
# [22] = P27 % NUCLEI POSITIVE: 0-20, High Tumor Burden, IRC Review
# [23] = P27 % NUCLEI POSITIVE: 0-20, ≦65 years old, IRC Review
# [24] = P27 % NUCLEI POSITIVE: 30-50, High Tumor Burden, IRC Review
# [25] = P27 % NUCLEI POSITIVE: 80-100, European Union, IRC Review
# [26] = P27 SIGNAL INTENSITY: ≦1+, High Tumor Burden, IRC Review
# [27] = P27 SIGNAL INTENSITY: ≧2+, 5 Prior Lines of Therapy, IRC Review
# [28] = P27 SIGNAL INTENSITY: ≧2+, European Union, IRC Review
# [29] = P27 SIGNAL INTENSITY: ≧2+, Prior Rituximab Therapy, IRC Review
# [30] = P27 SIGNAL INTENSITY: ≧2+, White, IRC Review
# [31] = P27 SIGNAL INTENSITY: ≧2+, ≦65 years old, IRC Review
# [32] = P27 SIGNAL TENSITY: ≧2+, No Subgroup, IRC Review
# [33] = P65 % NUCLEAR STAINING: 0, 1 Prior Line of Therapy, IRC Review
# [34] = P65 % NUCLEAR STAINING: ≦5%, 2 Prior Lines of Therapy, IRC Review
# [35] = P65 % NUCLEAR STAINING: ≦5%, 5 Prior Lines of Therapy, IRC Review
# [36] = P65 % NUCLEAR STAINING: ≦5%, Prior Rituximab Therapy, IRC Review
# [37] = P65 % NUCLEAR STAINING: ≦5%, ≦65 years old, IRC Review
# [38] = P65 % POSITIVE CYTOPLASMIC SIGNAL: >90%, 1 Prior Line of Therapy, IRC Review
# [39] = P65 % POSITIVE CYTOPLASMIC SIGNAL: >90%, >1 year since last anti- lymphoma treatment, IRC Review
# [40] = P65 % POSITIVE CYTOPLASMIC SIGNAL: >90%, European Union, IRC Review
# [41] = P65 % POSITIVE CYTOPLASMIC SIGNAL: >90%, Male, IRC Review
# [42] = P65 % POSITIVE CYTOPLASMIC SIGNAL: >90%, No Subgroup, IRC Review
# [43] = P65 % POSITIVE CYTOPLASMIC SIGNAL: >90%, White, IRC Review
# [44] = P65 % POSITIVE CYTOPLASMIC SIGNAL: >90%, ≦65 years old, IRC Review
# [45] = P65 INTENSITY CYTOPLASMIC SIGNAL: ≦1+, Ann Arbor Stage III, IRC Review
# [46] = P65 INTENSITY CYTOPLASMIC SIGNAL: ≦1+, European Union, IRC Review
# [47] = P65 INTENSITY CYTOPLASMIC SIGNAL: ≧2+, 1 Prior Line of Therapy, IRC Review
# [48] = P65 INTENSITY CYTOPLASMIC SIGNAL: ≧2+, Female, IRC Review
# [49] = P65 INTENSITY CYTOPLASMIC SIGNAL: ≧2+, White, IRC Review
substance,measurement,setting,value
rituximab,"Evt/N, Time to Next Anti-Lymphoma Therapy",[1],19/27
same,"Median, Time to Next Anti-Lymphoma Therapy",[1],501
same,"Evt/N, Time to Next Anti-Lymphoma Therapy",[2],20/31
same,"Median, Time to Next Anti-Lymphoma Therapy",[2],332
same,"Evt/N, Time to Next Anti-Lymphoma Therapy",[3],4/4
same,"Median, Time to Next Anti-Lymphoma Therapy",[3],341
same,"Evt/N, Time to Next Anti-Lymphoma Therapy",[4],15/18
same,"Median, Time to Next Anti-Lymphoma Therapy",[4],437
same,"Evt/N, Time to Next Anti-Lymphoma Therapy",[5],13/17
same,"Median, Time to Next Anti-Lymphoma Therapy",[5],675
same,"Evt/N, Time to Next Anti-Lymphoma Therapy",[6],19/23
same,"Median, Time to Next Anti-Lymphoma Therapy",[6],437
same,"Evt/N, Time to Next Anti-Lymphoma Therapy",[7],97/152
same,"Median, Time to Next Anti-Lymphoma Therapy",[7],504
same,"Evt/N, Time to Next Anti-Lymphoma Therapy",[8],97/152
same,"Median, Time to Next Anti-Lymphoma Therapy",[8],504
same,"Evt/N, Time to Next Anti-Lymphoma Therapy",[9],97/152
same,"Median, Time to Next Anti-Lymphoma Therapy",[9],504
same,"Evt/N, Time to Next Anti-Lymphoma Therapy",[10],97/152
same,"Median, Time to Next Anti-Lymphoma Therapy",[10],504
same,"Evt/N, Time to Next Anti-Lymphoma Therapy",[11],89/140
same,"Median, Time to Next Anti-Lymphoma Therapy",[11],504
same,"Evt/N, Time to Next Anti-Lymphoma Therapy",[12],78/122
same,"Median, Time to Next Anti-Lymphoma Therapy",[12],504
same,"Evt/N, Time to Next Anti-Lymphoma Therapy",[13],99/154
same,"Median, Time to Next Anti-Lymphoma Therapy",[13],505
same,"Evt/N, Time to Next Anti-Lymphoma Therapy",[14],88/139
same,"Median, Time to Next Anti-Lymphoma Therapy",[14],501
same,"Evt/N, Time to Next Anti-Lymphoma Therapy",[15],85/131
same,"Median, Time to Next Anti-Lymphoma Therapy",[15],501
same,"Evt/N, Time to Next Anti-Lymphoma Therapy",[16],99/155
same,"Median, Time to Next Anti-Lymphoma Therapy",[16],505
same,"Evt/N, Time to Next Anti-Lymphoma Therapy",[17],101/159
same,"Median, Time to Next Anti-Lymphoma Therapy",[17],533
same,"Evt/N, Time to Next Anti-Lymphoma Therapy",[18],111/169
same,"Median, Time to Next Anti-Lymphoma Therapy",[18],504
same,"Evt/N, Time to Next Anti-Lymphoma Therapy",[19],115/174
same,"Median, Time to Next Anti-Lymphoma Therapy",[19],504
same,"Evt/N, Time to Next Anti-Lymphoma Therapy",[20],19/26
same,"Median, Time to Next Anti-Lymphoma Therapy",[20],434
same,"Evt/N, Time to Next Anti-Lymphoma Therapy",[21],14/16
same,"Median, Time to Next Anti-Lymphoma Therapy",[21],418
same,"Evt/N, Time to Next Anti-Lymphoma Therapy",[22],23/27
same,"Median, Time to Next Anti-Lymphoma Therapy",[22],220
same,"Evt/N, Time to Next Anti-Lymphoma Therapy",[23],26/34
same,"Median, Time to Next Anti-Lymphoma Therapy",[23],327
same,"Evt/N, Time to Next Anti-Lymphoma Therapy",[24],17/22
same,"Median, Time to Next Anti-Lymphoma Therapy",[24],421
same,"Evt/N, Time to Next Anti-Lymphoma Therapy","P27 % NUCLEI POSITIVE: 60-70, 3 Prior Lines of Therapy, IRC Review",1/6
same,"Evt/N, Time to Next Anti-Lymphoma Therapy",[25],29/41
same,"Median, Time to Next Anti-Lymphoma Therapy",[25],655
same,"Evt/N, Time to Next Anti-Lymphoma Therapy",[26],16/18
same,"Median, Time to Next Anti-Lymphoma Therapy",[26],220
same,"Evt/N, Time to Next Anti-Lymphoma Therapy",[27],5/6
same,"Median, Time to Next Anti-Lymphoma Therapy",[27],228
same,"Evt/N, Time to Next Anti-Lymphoma Therapy",[28],57/89
same,"Median, Time to Next Anti-Lymphoma Therapy",[28],649
same,"Evt/N, Time to Next Anti-Lymphoma Therapy",[29],60/88
same,"Median, Time to Next Anti-Lymphoma Therapy",[29],421
same,"Evt/N, Time to Next Anti-Lymphoma Therapy",[30],113/177
same,"Median, Time to Next Anti-Lymphoma Therapy",[30],533
same,"Evt/N, Time to Next Anti-Lymphoma Therapy",[31],103/153
same,"Median, Time to Next Anti-Lymphoma Therapy",[31],484
same,"Evt/N, Time to Next Anti-Lymphoma Therapy",[32],127/199
same,"Median, Time to Next Anti-Lymphoma Therapy",[32],533
same,"Evt/N, Time to Next Anti-Lymphoma Therapy",[33],54/79
same,"Median, Time to Next Anti-Lymphoma Therapy",[33],546
same,"Evt/N, Time to Next Anti-Lymphoma Therapy",[34],7/9
same,"Median, Time to Next Anti-Lymphoma Therapy",[34],225
same,"Evt/N, Time to Next Anti-Lymphoma Therapy",[35],3/3
same,"Median, Time to Next Anti-Lymphoma Therapy",[35],235
same,"Evt/N, Time to Next Anti-Lymphoma Therapy",[36],16/21
same,"Median, Time to Next Anti-Lymphoma Therapy",[36],232
same,"Evt/N, Time to Next Anti-Lymphoma Therapy",[37],19/29
same,"Median, Time to Next Anti-Lymphoma Therapy",[37],374
same,"Evt/N, Time to Next Anti-Lymphoma Therapy",[38],59/89
same,"Median, Time to Next Anti-Lymphoma Therapy",[38],550
same,"Evt/N, Time to Next Anti-Lymphoma Therapy",[39],69/117
same,"Median, Time to Next Anti-Lymphoma Therapy",[39],593
same,"Evt/N, Time to Next Anti-Lymphoma Therapy",[40],57/92
same,"Median, Time to Next Anti-Lymphoma Therapy",[40],552
same,"Evt/N, Time to Next Anti-Lymphoma Therapy",[41],51/72
same,"Median, Time to Next Anti-Lymphoma Therapy",[41],427
same,"Evt/N, Time to Next Anti-Lymphoma Therapy",[42],129/204
same,"Median, Time to Next Anti-Lymphoma Therapy",[42],505
same,"Evt/N, Time to Next Anti-Lymphoma Therapy",[43],113/179
same,"Median, Time to Next Anti-Lymphoma Therapy",[43],505
same,"Evt/N, Time to Next Anti-Lymphoma Therapy",[44],103/154
same,"Median, Time to Next Anti-Lymphoma Therapy",[44],484
same,"Evt/N, Time to Next Anti-Lymphoma Therapy",[45],10/11
same,"Median, Time to Next Anti-Lymphoma Therapy",[45],261
same,"Evt/N, Time to Next Anti-Lymphoma Therapy",[46],13/18
same,"Median, Time to Next Anti-Lymphoma Therapy",[46],409
same,"Evt/N, Time to Next Anti-Lymphoma Therapy",[47],54/85
same,"Median, Time to Next Anti-Lymphoma Therapy",[47],568
same,"Evt/N, Time to Next Anti-Lymphoma Therapy",[48],74/129
same,"Median, Time to Next Anti-Lymphoma Therapy",[48],537
same,"Evt/N, Time to Next Anti-Lymphoma Therapy",[49],109/176
same,"Median, Time to Next Anti-Lymphoma Therapy",[49],533
same,"Evt/N, Time to Next Anti-Lymphoma Therapy","P65 INTENSITY CYTOPLASMIC SIGNAL: ≧2+, ≦65 years old, IRC Review",101/152
